Results from PubChem BioAssay AID248 (DTP/NCI, 2004).
Where “and” joins values, the source holds several entries; their conditions need not be identical. Equal values may be shown once. Toxic doses and inconclusive results are not listed. No stated cut-off is given here; in the data, active means T/C of 150% or more; inactive means T/C below 125%.

Tested on: L1210 leukemia ip in BDF1 mice, survival T/C
Experiment: NCI In Vivo Anticancer Drug Screen. Data for tumor model L1210 Leukemia (intraperitoneal) in B6D2F1 (BDF1) mice
Conditions: endpoint: mean survival time, higher = longer survival
Outline: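 In this screen, tumor-bearing mice given compound are compared to those given vehicle, and their survival values are reported as a treated-to-control quotient.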

[1] = dose: 100.0 mg/kg/injection, schedule: Q01DX009 (ip), vehicle: saline with Tween-80
[2] = dose: 200.0 mg/kg/injection, schedule: Q01DX009 (ip), vehicle: saline with Tween-80
[3] = dose: 100.0 mg/kg/injection, schedule: Q01DX009 (ip), vehicle: saline
[4] = dose: 200.0 mg/kg/injection, schedule: Q01DX009 (ip), vehicle: saline
[5] = dose: 400.0 mg/kg/injection, schedule: Q01DX009 (ip), vehicle: saline

Measured: T/C

CCOC(=O)CN1CCC(C2(c3cc4ccccc4[nH]3)OCCO2)CC1
inactive: dose: 12.0 mg/kg/injection, schedule: Q04DX003 (ip), vehicle: Klucel (hydroxypropylcellulose) (HPC) 91 % of control | dose: 25.0 mg/kg/injection, schedule: Q04DX003 (ip), vehicle: Klucel (hydroxypropylcellulose) (HPC) 89 % of control | dose: 50.0 mg/kg/injection, schedule: Q04DX003 (ip), vehicle: Klucel (hydroxypropylcellulose) (HPC) 100 % of control | dose: 100.0 mg/kg/injection, schedule: Q01DX009 (ip), vehicle: Klucel (hydroxypropylcellulose) (HPC) 97 % of control | dose: 200.0 mg/kg/injection, schedule: Q01DX009 (ip), vehicle: Klucel (hydroxypropylcellulose) (HPC) 103 % of control | dose: 400.0 mg/kg/injection, schedule: Q01DX009 (ip), vehicle: Klucel (hydroxypropylcellulose) (HPC) 101 % of control

C=CCCCCC/C=C/CCCCCC
inactive: [1] 89 % of control | [2] 92 % of control

CCCCOc1ccc(/C=N\N=C\c2ccc(OCCCC)cc2)cc1
inactive: [1] 90 % of control | [2] 88 % of control

O=C1NN=C(c2ccccc2)C1Cc1ccccc1 (stereo unspecified)
inactive: dose: 100.0 mg/kg/injection, schedule: Q01DX001 (ip), vehicle: saline 94 % of control | dose: 200.0 mg/kg/injection, schedule: Q01DX001 (ip), vehicle: saline 94 % of control | dose: 400.0 mg/kg/injection, schedule: Q01DX001 (ip), vehicle: saline 105 % of control

COc1ccc(CCNC(=O)C2(C(C)C)OC3(O)C4CCCN4C(=O)C(C(C)C)N3C2=O)cc1OC (stereo unspecified)
inactive: dose: 12.5 mg/kg/injection, schedule: Q04DX003 (ip), vehicle: alcohol 98 % of control | dose: 25.0 mg/kg/injection, schedule: Q04DX003 (ip), vehicle: alcohol 97 % of control | dose: 25.0 mg/kg/injection, schedule: Q04DX003 (ip), vehicle: saline with Tween-80 98 % of control | dose: 50.0 mg/kg/injection, schedule: Q04DX003 (ip), vehicle: alcohol 104 % of control | dose: 50.0 mg/kg/injection, schedule: Q04DX003 (ip), vehicle: saline with Tween-80 114 % of control | dose: 100.0 mg/kg/injection, schedule: Q04DX003 (ip), vehicle: alcohol 101 % of control | dose: 100.0 mg/kg/injection, schedule: Q04DX003 (ip), vehicle: saline with Tween-80 98 % of control | dose: 200.0 mg/kg/injection, schedule: Q04DX003 (ip), vehicle: saline with Tween-80 111 % of control

O=C(O)CC(NC(=O)CP(=O)(O)O)C(=O)O (stereo unspecified)
inactive: dose: 0.39 mg/kg/injection, schedule: Q01DX009 (ip), vehicle: saline 104 % of control | dose: 0.78 mg/kg/injection, schedule: Q01DX009 (ip), vehicle: saline 96 % of control | dose: 1.56 mg/kg/injection, schedule: Q01DX009 (ip), vehicle: saline 100 % of control | dose: 3.12 mg/kg/injection, schedule: Q01DX009 (ip), vehicle: saline 100 % of control | dose: 6.25 mg/kg/injection, schedule: Q01DX009 (ip), vehicle: saline 100 % of control | dose: 12.5 mg/kg/injection, schedule: Q01DX009 (ip), vehicle: saline 98 % of control | dose: 25.0 mg/kg/injection, schedule: Q01DX009 (ip), vehicle: saline 93 % of control and 94 % of control | dose: 50.0 mg/kg/injection, schedule: Q01DX009 (ip), vehicle: saline 96 % of control and 98 % of control | [3] 104 % of control and 122 % of control | [4] 117 % of control and 122 % of control | dose: 225.0 mg/kg/injection, schedule: Q01DX009 (ip), vehicle: saline 113 % of control | dose: 240.0 mg/kg/injection, schedule: Q04DX003 (ip), vehicle: saline 113 % of control | dose: 250.0 mg/kg/injection, schedule: Q01DX009 (ip), vehicle: saline 109 % of control | dose: 275.0 mg/kg/injection, schedule: Q01DX009 (ip), vehicle: saline 109 % of control | dose: 343.0 mg/kg/injection, schedule: Q04DX003 (ip), vehicle: saline 117 % of control | [5] 89 % of control | dose: 490.0 mg/kg/injection, schedule: Q04DX003 (ip), vehicle: saline 113 % of control | dose: 700.0 mg/kg/injection, schedule: Q04DX003 (ip), vehicle: saline 119 % of control

CC[N+](CC)(CC)CCC[N+](CC)(CC)CC
inactive: dose: 30.0 mg/kg/injection, schedule: Q01DX009 (ip), vehicle: water 98 % of control | dose: 50.0 mg/kg/injection, schedule: Q01DX009 (ip), vehicle: water 95 % of control and 96 % of control | dose: 80.0 mg/kg/injection, schedule: Q01DX009 (ip), vehicle: water 98 % of control | dose: 100.0 mg/kg/injection, schedule: Q04DX003 (ip), vehicle: water 103 % of control | dose: 200.0 mg/kg/injection, schedule: Q04DX003 (ip), vehicle: water 99 % of control

COc1ccc(C(=NO)c2ccc(OC)cc2)cc1
inactive: [3] 102 % of control | dose: 100.0 mg/kg/injection, schedule: Q04DX003 (ip), vehicle: saline 104 % of control | [4] 102 % of control | dose: 200.0 mg/kg/injection, schedule: Q04DX003 (ip), vehicle: saline 93 % of control | [5] 107 % of control | dose: 400.0 mg/kg/injection, schedule: Q04DX003 (ip), vehicle: saline 95 % of control

O=S(=O)(Nc1ccc(NS(=O)(=O)c2ccccc2)c(S(=O)(=O)c2ccccc2)c1)c1ccccc1
inactive: [1] 100 % of control | [2] 98 % of control | dose: 400.0 mg/kg/injection, schedule: Q01DX009 (ip), vehicle: saline with Tween-80 94 % of control

ClC12OOC(c3ccccc3)(O1)C(c1ccccc1)c1ccccc12 (stereo unspecified)
inactive: dose: 100.0 mg/kg/injection, schedule: Q04DX003 (ip), vehicle: Klucel (hydroxypropylcellulose) (HPC) 93 % of control | dose: 200.0 mg/kg/injection, schedule: Q04DX003 (ip), vehicle: Klucel (hydroxypropylcellulose) (HPC) 98 % of control | dose: 400.0 mg/kg/injection, schedule: Q04DX003 (ip), vehicle: Klucel (hydroxypropylcellulose) (HPC) 98 % of control

CN(C)C(=O)NN
inactive: [1] 104 % of control

N#CC1(NC(Cc2ccccc2)c2ccccc2)CCCCCCCCCCC1 (stereo unspecified)
inactive: dose: 100.0 mg/kg/injection, schedule: Q04DX002 (ip), vehicle: saline with Tween-80 101 % of control | dose: 200.0 mg/kg/injection, schedule: Q04DX002 (ip), vehicle: saline with Tween-80 94 % of control | dose: 400.0 mg/kg/injection, schedule: Q04DX002 (ip), vehicle: saline with Tween-80 97 % of control

CN(C)CCC(=O)c1ccc2cc(Br)c3ccccc3c2c1
inactive: dose: 13.3 mg/kg/injection, schedule: Q01DX Z (ip), vehicle: methylcellulose (MC) 91 % of control | dose: 30.0 mg/kg/injection, schedule: Q01DX Z (ip), vehicle: methylcellulose (MC) 95 % of control

O=[N+]([O-])c1ccc2nc[nH]c2c1
inactive: dose: 25.0 mg/kg/injection, schedule: Q01DX009 (ip), vehicle: saline with Tween-80 89 % of control | dose: 50.0 mg/kg/injection, schedule: Q01DX009 (ip), vehicle: saline with Tween-80 96 % of control

CC(=O)OC1CC2(O)C(CCC3(C)C(c4ccc(=O)oc4)CCC32O)C2(C)C1=CC(O)C1OC12 (stereo unspecified)
inactive: dose: 0.06 mg/kg/injection, schedule: Q01DX001 (sc), vehicle: steriod suspending solution 105 % of control | dose: 0.13 mg/kg/injection, schedule: Q01DX001 (sc), vehicle: steriod suspending solution 103 % of control | dose: 0.25 mg/kg/injection, schedule: Q01DX001 (sc), vehicle: steriod suspending solution 105 % of control | dose: 0.5 mg/kg/injection, schedule: Q01DX001 (sc), vehicle: steriod suspending solution 100 % of control and 102 % of control | dose: 1.0 mg/kg/injection, schedule: Q01DX001 (sc), vehicle: steriod suspending solution 96 % of control | dose: 2.0 mg/kg/injection, schedule: Q01DX001 (sc), vehicle: steriod suspending solution 104 % of control

CCC#CC(=O)OCCCCCC
inactive: dose: 100.0 mg/kg/injection, schedule: Q04DX002 (ip), vehicle: saline 107 % of control | dose: 200.0 mg/kg/injection, schedule: Q04DX002 (ip), vehicle: saline 100 % of control | dose: 400.0 mg/kg/injection, schedule: Q04DX002 (ip), vehicle: saline 103 % of control

O=C1OC(c2ccc([N+](=O)[O-])cc2)=N/C1=C\c1ccc(Cl)c(Cl)c1
inactive: dose: 100.0 mg/kg/injection, schedule: Q04DX002 (ip), vehicle: Klucel (hydroxypropylcellulose) (HPC) 108 % of control | dose: 200.0 mg/kg/injection, schedule: Q04DX002 (ip), vehicle: Klucel (hydroxypropylcellulose) (HPC) 97 % of control | dose: 400.0 mg/kg/injection, schedule: Q04DX002 (ip), vehicle: Klucel (hydroxypropylcellulose) (HPC) 101 % of control
